According to patent publication US20260297042A1, “BIARYLAMIDE DERIVATIVES AND THEIR USE AS PKMYT1 INHIBITORS” (CANCER RESEARCH TECHNOLOGY LIMITED, priority 2023, published 2026):

Tests used:
Human PKMYT1 = molecular target: T1, Human PKMYT1 (Homo sapiens, UniProt Q99640); test: PKMYT1 biochemical ADP-Glo enzymatic assay; details: ADP-Glo
T1 construct: Human PKMYT1 75-362 was cloned as a TEV cleavable 6xHis fusion; 6xHis (TEV cleavable) (cleaved yes); made in house; host or cells: bacterial cells
T1 sequence (Q99640 75-362): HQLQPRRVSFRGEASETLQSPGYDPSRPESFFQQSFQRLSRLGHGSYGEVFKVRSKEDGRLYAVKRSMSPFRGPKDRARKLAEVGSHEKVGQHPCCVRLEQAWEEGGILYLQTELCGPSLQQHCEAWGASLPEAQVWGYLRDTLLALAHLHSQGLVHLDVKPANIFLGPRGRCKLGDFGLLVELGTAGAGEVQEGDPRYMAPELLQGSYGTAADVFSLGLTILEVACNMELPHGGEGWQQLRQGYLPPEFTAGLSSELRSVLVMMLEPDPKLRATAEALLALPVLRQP
Procedure, shortened: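 Compounds were titrated over 10 points (3-fold steps), then 15 nM purified PKMYT1 kinase domain (aa 75-362) and 500 µM ATP were added in pH 7.5 HEPES buffer. After 60 min at 26 °C, remaining ATP was depleted and ADP converted to luminescence for IC50 fitting.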

WEE1 = molecular target: T2, WEE1 (Homo sapiens, UniProt P30291); test: Selectivity versus WEE1 assay (ADP-Glo enzymatic assay); type: biochemical; details: for IC50: ADP-Glo; for PKMYT1 vs. WEE1 selectivity: fold difference in selectivity for PKMYT1 over WEE1
T2 construct: purchased Thermo Fisher PR7373A
Procedure, shortened: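 Compounds were pre-dispensed, enzyme (15 nM final) was added in pH 7.5 HEPES buffer, and ATP ([…]) then started a 60 min incubation at 26° C. Afterwards ADP-Glo reagents were added in turn and luminescence was measured to derive IC50 values.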

[1] = PKMYT1 kinase domain 15 nM, banded values
[2] = 15 nM PKMYT1 kinase domain, 500 µM ATP, 60 minutes at 26° C., banded
[3] = 15 nM WEE1, 60 minutes at 26° C., banded
[4] = banded, ">N" = at least in this band but could be higher

T2 sequence (P30291 whole entry): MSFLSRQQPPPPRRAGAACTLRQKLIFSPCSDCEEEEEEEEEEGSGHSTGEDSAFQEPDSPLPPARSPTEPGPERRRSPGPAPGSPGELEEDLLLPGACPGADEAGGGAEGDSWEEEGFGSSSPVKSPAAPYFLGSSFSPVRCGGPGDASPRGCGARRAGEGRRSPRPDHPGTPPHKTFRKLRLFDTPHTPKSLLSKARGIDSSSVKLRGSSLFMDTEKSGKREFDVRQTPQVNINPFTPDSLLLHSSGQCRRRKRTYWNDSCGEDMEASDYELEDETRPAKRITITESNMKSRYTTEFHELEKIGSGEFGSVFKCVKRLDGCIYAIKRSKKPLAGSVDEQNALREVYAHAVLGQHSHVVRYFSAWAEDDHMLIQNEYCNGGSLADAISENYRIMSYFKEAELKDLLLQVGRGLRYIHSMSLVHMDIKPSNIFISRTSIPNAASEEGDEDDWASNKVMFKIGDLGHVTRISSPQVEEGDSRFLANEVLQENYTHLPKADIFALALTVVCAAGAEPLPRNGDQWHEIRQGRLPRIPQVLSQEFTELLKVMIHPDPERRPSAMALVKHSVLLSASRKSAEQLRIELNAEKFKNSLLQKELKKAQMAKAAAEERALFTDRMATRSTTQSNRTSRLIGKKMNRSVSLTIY

| Compound | IC50 (Human PKMYT1; [1]) [nM] | IC50 (WEE1; WEE1 15 nM, banded values) [µM] | PKMYT1 vs. WEE1 selectivity (WEE1; banded) | IC50 (Human PKMYT1; [2]) [nM] | IC50 (WEE1; [3]) [µM] | PKMYT1 vs. WEE1 selectivity (WEE1; [4]) |
| --- | --- | --- | --- | --- | --- | --- |
| Cc1ccc(O)c(C)c1NC(=O)c1cnc(Nc2cnn(CC(=O)N3CCCC3)c2)s1 [BAA-527, N-(3-hydroxy-2,6-dimethylphenyl)-2-((1-(2-oxo-2-(pyrrolidin-1-yl)ethyl)-1H-pyrazol-4-yl)amino)thiazole-5-carboxamide] | 50 to 1000 | > 11 | W (10-<100 fold) | – | – | – |
| Cc1ccc(O)c(C)c1NC(=O)c1cnc(Nc2cccc3scnc23)s1 [BAA-486, 2-(benzo[d]thiazol-4-ylamino)-N-(3-hydroxy-2,6-dimethylphenyl)thiazole-5-carboxamide] | 50 to 1000 | > 11 | X (100-<1000 fold) | – | – | – |
| Cc1ccc(O)c(C)c1NC(=O)c1cnc(Nc2ccn(CC(=O)N3CCN(C)CC3)n2)s1 [BAA-034] | – | – | – | < 50 | 1 to 11 | X (100-<1000 fold) |
| Cc1ccc(O)c(C)c1NC(=O)c1cnc(Nc2cccc(C3=NCCO3)c2)s1 [BAA-461, 2-((3-(4,5-dihydrooxazol-2-yl)phenyl)amino)-N-(3-hydroxy-2,6-dimethylphenyl)thiazole-5-carboxamide] | < 50 | 1 to 11 | X (100-<1000 fold) | – | – | – |
| Cc1ccc(O)c(C)c1NC(=O)c1cnc(NCc2ccccc2C2CC2)s1 [BAA-356, 2-((2-cyclopropylbenzyl)amino)-N-(3-hydroxy-2,6-dimethylphenyl)thiazole-5-carboxamide] | – | – | – | 1000 to 11000 | > 11 | W (10-<100 fold) |
| Cc1cc(C)c(NC(=O)c2cnc(Nc3ccn(CC(=O)N4CCCC4)n3)s2)c(C)c1O [BAA-516, N-(3-hydroxy-2,4,6-trimethylphenyl)-2-((1-(2-oxo-2-(pyrrolidin-1-yl)ethyl)-1H-pyrazol-3-yl)amino)thiazole-5-carboxamide] | 50 to 1000 | > 11 | X (100-<1000 fold) | – | – | – |
| Cc1ccc(O)c(C)c1NC(=O)c1cnc(Nc2ccn([C@@H]3CCN(C(=O)CC(F)(F)F)C3)n2)s1 [BAA-084] | – | – | – | 50 to 1000 | > 11 | >Y (1000-5000 fold) |
| CNc1ncc(C(=O)Nc2c(C)ccc(O)c2C)s1 [BAA-221, N-(3-Hydroxy-2,6-dimethyl-phenyl)-2-(methylamino)thiazole-5-carboxamide] | – | – | – | 50 to 1000 | > 11 | X (100-<1000 fold) |
| Cc1ccc(O)c(C)c1NC(=O)c1cnc(Nc2ccn(CC(=O)N3CC4(CCC4)C3)n2)s1 [BAA-199] | – | – | – | < 50 | 1 to 11 | Y (1000-5000 fold) |
| Cc1ccc(O)c(C)c1NC(=O)c1nnc(Nc2ccn(C3CCC3)n2)s1 [BAA-466, 5-((1-cyclobutyl-1H-pyrazol-3-yl)amino)-N-(3-hydroxy-2,6-dimethylphenyl)-1,3,4-thiadiazole-2-carboxamide] | 50 to 1000 | > 11 | Y (1000-5000 fold) | – | – | – |
| CCCCn1ccc(Nc2ncc(C(=O)Nc3c(C)ccc(O)c3C)s2)n1 [BAA-012, 2-[(1-butylpyrazol-3-yl)amino]-N-(3-hydroxy-2,6-dimethyl-phenyl)thiazole-5-carboxamide] | – | – | – | 50 to 1000 | 1 to 11 | W (10-<100 fold) |
| Cc1ccc(O)c(C)c1NC(=O)c1cnc(Nc2nc(C(F)(F)F)co2)s1 [BAA-438, N-(3-hydroxy-2,6-dimethylphenyl)-2-((4-(trifluoromethyl)oxazol-2-yl)amino) thiazole-5-carboxamide] | 1000 to 11000 | > 11 | W (10-<100 fold) | – | – | – |
| Cc1csc(Nc2ncc(C(=O)Nc3c(C)ccc(O)c3C)s2)n1 [BAA-264, N-(3-hydroxy-2,6-dimethylphenyl)-2-((4-methylthiazol-2-yl)amino)thiazole-5-carboxamide] | – | – | – | < 50 | > 11 | X (100-<1000 fold) |
| Cc1ccc(O)c(C)c1NC(=O)c1cnc(Nc2ncc(F)cc2Cl)s1 [BAA-404, 2-((3-chloro-5-fluoropyridin-2-yl)amino)-N-(3-hydroxy-2,6-dimethylphenyl)thiazole-5-carboxamide] | < 50 | > 11 | Y (1000-5000 fold) | – | – | – |
| Cc1ccc(O)c(C)c1NC(=O)c1cnc(NCC2CCN(C(=O)OC(C)(C)C)CC2)s1 [BAA-066] | – | – | – | 50 to 1000 | > 11 | >X (100-<1000 fold) |
| Cc1cn(CC(=O)N(C)CCO)nc1Nc1ncc(C(=O)Nc2c(C)ccc(O)c2C)s1 [BAA-524, N-(3-Hydroxy-2.6-dimethylphenyl)-2-((1-(2-((2-hydroxyethyl)(methyl)amino)-2-oxoethyl)-4-methyl-1H-pyrazol-3-yl)amino)thiazole-5-carboxamide] | < 50 | > 11 | Y (1000-5000 fold) | – | – | – |
| Cc1ccc(O)c(C)c1NC(=O)c1cnc(Nc2cncc(-c3ccc(F)cc3)c2)s1 [BAA-305, 2-((5-(4-fluorophenyl)pyridin-3-yl)amino)-N-(3-hydroxy-2,6-dimethylphenyl)thiazole-5-carboxamide] | – | – | – | 1000 to 11000 | > 11 | W (10-<100 fold) |
| Cc1ccc(O)c(C)c1NC(=O)c1cnc(Nc2ccn([C@@H]3CCN(C(=O)NCc4ccccc4)C3)n2)s1 [BAA-108, 2-[[1-[(3R)-1-(Benzylcarbamoyl)pyrrolidin-3-yl]pyrazol-3-yl]amino]-N-(3-hydroxy-2,6-dimethyl-phenyl)thiazole-5-carboxamide] | – | – | – | < 50 | > 11 | >Y (1000-5000 fold) |
| CC(=O)N1CCN(C(=O)Cn2ccc(Nc3ncc(C(=O)Nc4c(C)ccc(O)c4C)s3)n2)CC1 [BAA-145] | – | – | – | < 50 | > 11 | Y (1000-5000 fold) |
| Cc1ccc(O)c(C)c1NC(=O)c1cnc(Nc2cn(C)nc2C)s1 [BAA-521, 2-((1,3-dimethyl-1H-pyrazol-4-yl)amino)-N-(3-hydroxy-2,6-dimethylphenyl)thiazole-5-carboxamide] | 50 to 1000 | > 11 | X (100-<1000 fold) | – | – | – |
| Cc1ccc(O)c(C)c1NC(=O)c1cnc(Nc2ccn([C@@H]3CCN(C(=O)C(C)(C)C)C3)n2)s1 [BAA-080, 2-[[1-[(3R)-1-(2.2-Dimethylpropanoyl)pyrrolidin-3-yl]pyrazol-3-yl]amino]-N-(3-hydroxy-2,6-dimethyl-phenyl)thiazole-5-carboxamide] | – | – | – | 50 to 1000 | > 11 | >X (100-<1000 fold) |
| Cc1ccc(O)c(C)c1NC(=O)c1cnc(Nc2nc3ccccc3o2)s1 [BAA-044, 2-(1,3-benzoxazol-2-ylamino)-N-(3-hydroxy-2,6-dimethyl-phenyl)thiazole-5-carboxamide] | – | – | – | 50 to 1000 | > 11 | >X (100-<1000 fold) |
| CCN1CCN(C(=O)Cn2ccc(Nc3ncc(C(=O)Nc4c(C)ccc(O)c4C)s3)n2)CC1 [BAA-177] | – | – | – | < 50 | > 11 | X (100-<1000 fold) |
| CCN(CC)C(=O)Cn1nc(Nc2ncc(C(=O)Nc3c(C)ccc(O)c3C)s2)cc1C [BAA-204, 2-[[1-[2-(diethylamino)-2-oxo-ethyl]-5-methyl-pyrazol-3-yl]amino]-N-(3-hydroxy-2,6-dimethyl-phenyl)thiazole-5-carboxamide] | – | – | – | < 50 | > 11 | Z (>5000 fold) |
| Cc1ccc(O)c(C)c1NC(=O)c1cnc(NCC2CCN(C(=O)Cc3ccc(Cl)cc3)CC2)s1 [BAA-214, 2-[[1-[2-(4-chlorophenyl)acetyl]-4-piperidyl]methylamino]-N-(3-hydroxy-2,6-dimethyl-phenyl)thiazole-5-carboxamide] | – | – | – | 50 to 1000 | > 11 | >X (100-<1000 fold) |
| CCN(CC)C(=O)Cn1cc(C)c(Nc2ncc(C(=O)Nc3c(C)cc(Br)c(O)c3C)s2)n1 [BAA-608, N-(4-bromo-3-hydroxy-2,6-dimethylphenyl)-2-((1-(2-(diethylamino)-2-oxoethyl)-4-methyl-1H-pyrazol-3-yl)amino)thiazole-5-carboxamide] | 50 to 1000 | > 11 | X (100-<1000 fold) | – | – | – |
| Cc1ccc(O)c(C)c1NC(=O)c1cnc(Nc2ccn(CCCC(=O)O)n2)s1 [BAA-058, 4-[3-[[5-[(3-Hydroxy-2,6-dimethyl-phenyl)carbamoyl]thiazol-2-yl]amino]pyrazol-1-yl]butanoic acid] | – | – | – | < 50 | > 11 | X (100-<1000 fold) |
| Cc1ccc(O)c(C)c1NC(=O)c1cnc(Nc2ccn([C@@H]3CCN(C(=O)Cc4cccs4)C3)n2)s1 [BAA-098] | – | – | – | 50 to 1000 | > 11 | >X (100-<1000 fold) |
